Source: paper PMC4627656, “Combining Metabolite-Based Pharmacophores with Bayesian Machine Learning Models for Mycobacterium tuberculosis Drug Discovery” (PLoS ONE, 2015)
≈ marks a conversion by molar mass, not a printed value.

Columns and labels:
Type in all cases: cell-based
[1] = system: clinical strain 210; experiment: AlamarBlue MIC (absorbance), strain panel: 210; details: Mycobacterium tuberculosis, drug resistance: None
[2] = system: clinical MDR-TB strain 36; experiment: AlamarBlue MIC (absorbance), strain panel: 36; details: Mycobacterium tuberculosis, read-out: MIC, strain 36
[3] = system: clinical MDR-TB strain 31; experiment: AlamarBlue MIC (absorbance), strain panel: 31; details: Mycobacterium tuberculosis, read-out: MIC, strain 31
[4] = system: clinical MDR-TB strain 116; experiment: AlamarBlue MIC (absorbance), strain panel: 116; details: Mycobacterium tuberculosis, read-out: MIC, strain 116
[5] = system: clinical MDR-TB strain 91; experiment: AlamarBlue MIC (absorbance), strain panel: 91; details: Mycobacterium tuberculosis, read-out: MIC, strain 91
[6] = system: H37Rv (laboratory strain); experiment: AlamarBlue MIC (absorbance), strain panel: H37Rv; details: Mycobacterium tuberculosis, drug resistance: None

`CCCCC(=O)c1c(C)[n+]([O-])c2ccc([N+](=O)[O-])cc2[n+]1[O-]` [SRI50] showed an MIC [1] of 0.31 µg/mL (≈ 1.02 µM), an MIC [2] of 0.16 µg/mL (≈ 0.524 µM) and an MIC [3] of 0.31 µg/mL (≈ 1.02 µM). The MIC [4] was 0.16 µg/mL (≈ 0.524 µM), the MIC [5] was 0.16 µg/mL (≈ 0.524 µM) and the MIC [6] was 0.16 µg/mL (≈ 0.524 µM).
